These results are taken from publication PMC9721373 (Antiviral Research, 2022).

Series [1] relates to rVSVΔG-GFP/SARS2-S. Kind of series: microbe, parasite or virus in culture. The conditions noted are these: for activity at 10 µM: Severe acute respiratory syndrome coronavirus 2, HEK-293T, 16 h, read-out: rVSVΔG-GFP/SARS2-S GFP (%); for rVSVΔG-GFP/SARS2-S GFP (%): 10 μM, HEK293T/ACE2, 16 hpi, GFP-positive cells, vehicle-treated = 100%. The series is classed as cell-based.
The test system of the next series is rVSVΔG-GFP/VSVG. Kind of series: microbe, parasite or virus in culture. The format is cell-based. Conditions: for activity at 10 µM: Vesicular stomatitis virus, HEK-293T, 16 h, read-out: rVSVΔG-GFP/VSVG GFP (%).
A further series has as its target purified ACE2. The conditions noted are these: read-out: dissociation constant (KD), ref Lu et al., 2021; cited from earlier work.
In series [2] the target is SARS2-S–NRP-1 binding (rS1 / rNRP-1) (Homo sapiens, UniProt O14786).
Sequence of SARS2-S–NRP-1 binding (rS1 / rNRP-1) (O14786 22-856): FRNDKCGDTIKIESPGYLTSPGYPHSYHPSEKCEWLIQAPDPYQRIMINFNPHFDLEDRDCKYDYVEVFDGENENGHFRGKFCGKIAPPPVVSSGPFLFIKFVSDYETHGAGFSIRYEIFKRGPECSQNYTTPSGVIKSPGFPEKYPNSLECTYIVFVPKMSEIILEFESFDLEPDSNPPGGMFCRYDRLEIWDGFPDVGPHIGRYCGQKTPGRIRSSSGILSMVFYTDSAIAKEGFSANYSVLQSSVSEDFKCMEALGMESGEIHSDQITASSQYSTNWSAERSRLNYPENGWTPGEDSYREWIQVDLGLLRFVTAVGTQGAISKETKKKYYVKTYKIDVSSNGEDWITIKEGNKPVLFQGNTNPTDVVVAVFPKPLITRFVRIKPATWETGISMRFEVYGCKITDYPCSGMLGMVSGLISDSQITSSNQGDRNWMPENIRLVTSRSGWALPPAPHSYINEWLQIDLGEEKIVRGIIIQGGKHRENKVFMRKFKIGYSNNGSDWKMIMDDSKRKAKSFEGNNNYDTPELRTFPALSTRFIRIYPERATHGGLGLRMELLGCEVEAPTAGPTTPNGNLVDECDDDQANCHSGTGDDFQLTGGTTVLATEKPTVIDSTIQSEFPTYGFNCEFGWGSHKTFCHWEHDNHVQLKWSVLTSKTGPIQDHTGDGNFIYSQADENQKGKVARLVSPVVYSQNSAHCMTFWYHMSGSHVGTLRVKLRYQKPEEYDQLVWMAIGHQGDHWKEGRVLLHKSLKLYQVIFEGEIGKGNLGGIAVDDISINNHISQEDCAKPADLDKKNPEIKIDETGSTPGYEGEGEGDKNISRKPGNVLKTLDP
Series [3] has as its system rVSVΔG-GFP/SARS2-S. Kind of series: microbe, parasite or virus in culture. The conditions noted are these: Severe acute respiratory syndrome coronavirus 2, HEK-293T.
The next series relates to VeroE6/TMPRSS2 cells. The conditions noted are these: 10 μM, 17.5 h.
The subject of series [4] is rVSVΔG-GFP/SARS2-S.
Setting [5] is: 10 μM, HEK293T/ACE2, 16 hpi, GFP-positive cells, vehicle-treated = 100%.

Where a name gives a salt, the structure may show the parent alone. Read-outs that look alike come from different tables or passages of the source.

Broadly, the Kd is the constant that tells how readily two partners part at equilibrium. As usually defined, the EC50 is the concentration at which the effect is half-maximal.

Turning to `CC/C(=C(\c1ccccc1)c1ccc(OCCN(C)C)cc1)c1ccccc1` [Tamoxifen citrate], the activity at 10 µM in the series on rVSVΔG-GFP/SARS2-S [1] was 16.3%; in the series on rVSVΔG-GFP/VSVG, 106%. Besides, the “rVSVΔG-GFP/SARS2-S Hoechst (%)” value in the series with HEK293T/ACE2 cells (human) worked out at 99.67%. Further, the “rVSVΔG-GFP/VSVG Hoechst (%)” value in the series with HEK293T/ACE2 cells (human) amounted to 97.14%.
The matching figures for `CNCCC=C1c2ccccc2CCc2ccccc21` [Nortriptyline hydrochloride]: 17.4%, 91.7%, 81.23% and 76.77%.
Regarding `CC[C@H]1OC(=O)[C@H](C)[C@@H](O[C@H]2C[C@@](C)(OC)[C@@H](O)[C@H](C)O2)[C@H](C)[C@@H](O[C@@H]2O[C@H](C)C[C@H](N(C)C)[C@H]2O)[C@](C)(O)C[C@@H](C)CN(C)[C@H](C)[C@@H](O)[C@]1(C)O` [Azithromycin dihydrate], in the series with HEK293T/ACE2 cells (human), the “rVSVΔG-GFP/SARS2-S Hoechst (%)” value is reported as 100.22% and the “rVSVΔG-GFP/VSVG Hoechst (%)” value is 101.30%.
In the case of `C=CC(=O)Nc1cc(Nc2nccc(-c3cn(C)c4ccccc34)n2)c(OC)cc1N(C)CCN(C)C.CS(=O)(=O)O` [AZD-9291 mesylate], the “rVSVΔG-GFP/SARS2-S GFP (%)” value in the series with rVSVΔG-GFP/SARS2-S [1] turned out to be 5.36%. The “rVSVΔG-GFP/VSVG GFP (%)” value in the series on rVSVΔG-GFP/VSVG (setting [5]) was 112.06%. In the series on HEK293T/ACE2 cells, the “rVSVΔG-GFP/SARS2-S Hoechst (%)” value is on record as 98.67% and the “rVSVΔG-GFP/VSVG Hoechst (%)” value is 98.67%.
As to `CN(C)CCOc1ccc(/C(=C(/CCCl)c2ccccc2)c2ccccc2)cc1` [Toremifene], the “rVSVΔG-GFP/SARS2-S GFP (%)” value in the series with rVSVΔG-GFP/SARS2-S [1] is 21.77%. The “rVSVΔG-GFP/VSVG GFP (%)” value in the series on rVSVΔG-GFP/VSVG (setting [5]) amounted to 142.24%. In the series with HEK293T/ACE2 cells (human), the “rVSVΔG-GFP/SARS2-S Hoechst (%)” value came out at 101.27% and the “rVSVΔG-GFP/VSVG Hoechst (%)” value was determined as 90.44%.
On to `Fc1ccc([C@@H]2CCNC[C@H]2COc2ccc3c(c2)OCO3)cc1` [Paroxetine hydrochloride], for which, in the series with HEK293T/ACE2 cells (human), the “rVSVΔG-GFP/SARS2-S Hoechst (%)” value is given as 102.73% and the “rVSVΔG-GFP/VSVG Hoechst (%)” value stood at 98.03%.
On to `OCCN1CCN(CCCN2c3ccccc3Sc3ccc(Cl)cc32)CC1` [Perphenazine], for which the “rVSVΔG-GFP/VSVG Hoechst (%)” value in the series with HEK293T/ACE2 cells (human) was determined as 86.64%.
As to `CCCCc1oc2ccc(NS(C)(=O)=O)cc2c1C(=O)c1ccc(OCCCN(CCCC)CCCC)cc1` [Dronedarone hydrochloride], in the series on HEK293T/ACE2 cells (human), the “rVSVΔG-GFP/SARS2-S Hoechst (%)” value is reported as 99.72% and the “rVSVΔG-GFP/VSVG Hoechst (%)” value is recorded as 101.34%.
Turning to `CN1CC2c3ccccc3Oc3ccc(Cl)cc3C2C1` (stereo not shown) [Asenapine Maleate, Asenapine maleate], in the series with HEK293T/ACE2 cells (human), the “rVSVΔG-GFP/SARS2-S Hoechst (%)” value was 98.20% and the “rVSVΔG-GFP/VSVG Hoechst (%)” value was determined as 95.98%.
Take `CN[C@H]1CC[C@@H](c2ccc(Cl)c(Cl)c2)c2ccccc21` [Sertraline hydrochloride]: in the series with rVSVΔG-GFP/SARS2-S [1], the activity at 10 µM stood at 15.8%. In the series on rVSVΔG-GFP/VSVG, the activity at 10 µM stood at 105%. In the series on HEK293T/ACE2 cells (human), the “rVSVΔG-GFP/SARS2-S Hoechst (%)” value was determined as 101.27% and the “rVSVΔG-GFP/VSVG Hoechst (%)” value is reported as 97.33%.
As for `CC(CN(C)C)CN1c2ccccc2CCc2ccccc21` (stereo not shown) [Trimipramine maleate], the “rVSVΔG-GFP/VSVG Hoechst (%)” value in the series with HEK293T/ACE2 cells (human) amounted to 99.90%.
Take `C[C@@H](NCCCc1cccc(C(F)(F)F)c1)c1cccc2ccccc12` [Cinacalcet hydrochloride]: in the series with HEK293T/ACE2 cells (human), the “rVSVΔG-GFP/SARS2-S Hoechst (%)” value is listed as 97.33% and the “rVSVΔG-GFP/VSVG Hoechst (%)” value turned out to be 95.94%.
For `Cc1c(-c2ccc(O)cc2)n(Cc2ccc(OCCN3CCCCCC3)cc2)c2ccc(O)cc12` [Bazedoxifene acetate] the same measures were 88.96% and 102.51%.
As to `CN(C)CCCN1c2ccccc2Sc2ccc(Cl)cc21` [Chlorpromazine hydrochloride], the Kd on purified ACE2 is 13.8 µM. In addition, the “rVSVΔG-GFP/VSVG Hoechst (%)” value with HEK293T/ACE2 cells (human) amounted to 97.98%.
`CN(C)CCOc1ccc(/C(=C(/CCCl)c2ccccc2)c2ccccc2)cc1` [Toremifene citrate]: in the series with rVSVΔG-GFP/SARS2-S [1], the “rVSVΔG-GFP/SARS2-S GFP (%)” value was 8.32%. In addition, in the series on rVSVΔG-GFP/VSVG (setting [5]), the “rVSVΔG-GFP/VSVG GFP (%)” value was 109.35%. Besides, in the series with HEK293T/ACE2 cells (human), the “rVSVΔG-GFP/SARS2-S Hoechst (%)” value is listed as 99.98% and the “rVSVΔG-GFP/VSVG Hoechst (%)” value was 98.74%.
Regarding `CSc1ccc2c(c1)N(CCC1CCCCN1C)c1ccccc1S2` (stereo not shown) [Thioridazine hydrochloride], in the series on rVSVΔG-GFP/SARS2-S [1], the activity at 10 µM was 15.8%. Besides, the activity at 10 µM with rVSVΔG-GFP/VSVG was 119%. In the series with HEK293T/ACE2 cells (human), the “rVSVΔG-GFP/SARS2-S Hoechst (%)” value is on record as 98.59% and the “rVSVΔG-GFP/VSVG Hoechst (%)” value was 95.38%.
The matching figures for `OCCN1CCN(CCCN2c3ccccc3Sc3ccc(C(F)(F)F)cc32)CC1` [Fluphenazine hydrochloride, Fluphenazine dihydrochloride]: 19.3%, 106%, 103.35% and 100.59%.
With `Cc1ccc(NC(=O)c2ccc(CN3CCN(C)CC3)cc2)cc1Nc1nccc(-c2cccnc2)n1` [Imatinib Mesylate (STI571), Imatinib Mesylate], the activity at 10 µM in the series on rVSVΔG-GFP/SARS2-S [1] came to 20.8%. Also, the “rVSVΔG-GFP/VSVG GFP (%)” value in the series on rVSVΔG-GFP/VSVG came to 103.15%. Also, in the series on HEK293T/ACE2 cells (human), the “rVSVΔG-GFP/SARS2-S Hoechst (%)” value was 96.53% and the “rVSVΔG-GFP/VSVG Hoechst (%)” value came to 94.49%.
With `NC(N)=NCCC[C@H](NC(=O)c1sccc1NS(=O)(=O)c1cccc2nsnc12)C(=O)O` [EG00229], the “concentration required to inhibit SARS2-S–NRP-1 binding” value in series [2] is on record as 1 mM.
`CC(CN(C)C)CN1c2ccccc2Sc2ccccc21` (stereo not shown) [Alimemazine tartrate] displayed an EC50 in the series with rVSVΔG-GFP/SARS2-S [3] of 2.42 µM. In series [2], the “NRP1–S1 Binding (Normalized signal intensity)” value is “inhibited”. In the series on VeroE6/TMPRSS2 cells, the VeroE6/TMPRSS2 cell viability result is given as “did not affect”. Moreover, the “SI (CC50/EC50)” value in the series on rVSVΔG-GFP/SARS2-S [4] came to 12.2.
As to `COc1cc2c(Nc3ccc(Br)cc3F)ncnc2cc1OCC1CCN(C)CC1` [Vandetanib (ZD6474), Vandetanib], in the series on HEK293T/ACE2 cells (human), the “rVSVΔG-GFP/SARS2-S Hoechst (%)” value is given as 104.11% and the “rVSVΔG-GFP/VSVG Hoechst (%)” value worked out at 99.04%.
Regarding `Clc1ccc2c(c1)C(N1CCNCC1)=Nc1ccccc1O2` [Amoxapine], the activity at 10 µM with rVSVΔG-GFP/SARS2-S [1] is 23.7%. Further, the activity at 10 µM in the series with rVSVΔG-GFP/VSVG was 116%. Further, in the series on HEK293T/ACE2 cells (human), the “rVSVΔG-GFP/SARS2-S Hoechst (%)” value worked out at 102.06% and the “rVSVΔG-GFP/VSVG Hoechst (%)” value is 99.31%.
Regarding `O=C(c1ccc(OCCN2CCCCC2)cc1)c1c(-c2ccc(O)cc2)sc2cc(O)ccc12` [Raloxifene hydrochloride], in the series on HEK293T/ACE2 cells (human), the “rVSVΔG-GFP/SARS2-S Hoechst (%)” value came out at 101.70% and the “rVSVΔG-GFP/VSVG Hoechst (%)” value is given as 103.53%.
`CN1CCN(CCCN2c3ccccc3Sc3ccc(C(F)(F)F)cc32)CC1` [Trifluoperazine dihydrochloride]: the Kd on purified ACE2 was 33.3 µM. For the same compound, in the series with HEK293T/ACE2 cells (human), the “rVSVΔG-GFP/SARS2-S Hoechst (%)” value worked out at 107.56% and the “rVSVΔG-GFP/VSVG Hoechst (%)” value was determined as 97.29%.
Regarding `CN1CCN(CCCN2c3ccccc3Sc3ccc(Cl)cc32)CC1` [Prochlorperazine Maleate, Prochlorperazine dimaleate], the activity at 10 µM in the series with rVSVΔG-GFP/SARS2-S [1] was 16.6%; in the series on rVSVΔG-GFP/VSVG, 131%. In the series with HEK293T/ACE2 cells (human), the “rVSVΔG-GFP/SARS2-S Hoechst (%)” value is recorded as 97.05%. The “rVSVΔG-GFP/VSVG Hoechst (%)” value in the series with HEK293T/ACE2 cells (human) is listed as 93.26%.
Consider `CN1CCC[C@@H]1CCO[C@](C)(c1ccccc1)c1ccc(Cl)cc1` [Clemastine fumarate], for which the figures for the activity at 10 µM in the series with rVSVΔG-GFP/SARS2-S [1] and in the series with rVSVΔG-GFP/VSVG were 12.5% and 105%, respectively. In addition, in the series with HEK293T/ACE2 cells (human), the “rVSVΔG-GFP/SARS2-S Hoechst (%)” value is 106.94%. Besides, in the series with HEK293T/ACE2 cells (human), the “rVSVΔG-GFP/VSVG Hoechst (%)” value was found to be 101.47%.
